Data published in ChEMBL document CHEMBL3137667, “[Drug-induced liver injury; fourteenth updated edition of the bibliographic database of liver injuries and related drugs]” (Gastroenterol Clin Biol, 2004).

Experiments:
[1] = human
[2] = human; remark: listed apart in the source
[3] = human, serum
[4] = human; remark: listed apart in the source
[5] = human; remark: listed apart in the source
[6] = human; remark: listed apart in the source
[7] = human; remark: listed apart in the source
[8] = Times to onset, minimal and maximal, observed in the indexed observations. [column 'DELAI' in source]; details: human
[9] = human; remark: listed apart in the source
[10] = Proposed mechanism(s) of liver damage. [column 'MEC' in source]; details: human
[11] = human, serum; remark: listed apart in the source
[12] = Presence of at least one case with successful reintroduction. [column 'REINT' in source]; details: human
[13] = human; remark: listed apart in the source
[14] = Highest frequency of acute liver toxicity observed during clinical trials, expressed as a percentage. [column '% AIGUE' in source]; details: human
[15] = Comments (NB not yet translated). [column 'COMMENTAIRES' in source]; details: human
[16] = human; remark: listed apart in the source
[17] = human, serum, 4383 h
[18] = human; remark: listed apart in the source
[19] = Highest frequency of moderate liver toxicity observed during clinical trials, expressed as a percentage. [column '% BIOL' in source]; details: human
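Wherever Hepatotoxicity (association with vascular disease) is given: count of indexed literature references reporting vascular liver injury in humans, e.g. peliosis hepatitis, hepatic veno-occlusive disease or Budd-Chiari syndrome.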
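Wherever Hepatotoxicity (benign tumour) is given: value is a count of indexed literature references citing a benign tumour confirmed by histopathology.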
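Wherever Hepatotoxicity (choleostasis) is given: human cholestatic liver injury, shown by histopathology or by peak ALT or AST elevation over alkaline phosphatase ratio below 2, value counts indexed literature reports.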
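Wherever Hepatotoxicity (chronic liver disease) is given: chronic liver injury confirmed by histopathology or persistently raised serum aminotransferase activity beyond 6 months, value given as the count of indexed literature references.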
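Wherever Hepatotoxicity (cirrhosis) is given: value is a count of indexed literature references reporting cirrhosis confirmed by histopathology.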
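Wherever Hepatotoxicity (cytolytic) is given: human cytolytic liver injury, shown by histopathology or by a ratio above 5 of peak ALT or AST elevation to alkaline phosphatase elevation, value counts indexed references.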
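Wherever Hepatotoxicity (granulomatous hepatitis) is given: value is a count of indexed literature references reporting granulomatous liver disease confirmed by histopathology.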
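Wherever Hepatotoxicity (malignant tumour) is given: malignant tumour confirmed by histopathology, value gives the count of indexed literature references reporting it.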
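Wherever Hepatotoxicity (severe hepatitis) is given: human clinical data: severe hepatitis, meaning potentially life-threatening liver failure or clinically observed cases, the value counts how many indexed literature references report it.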
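Wherever Hepatotoxicity (steatosis) is given: steatosis confirmed by histopathology, value is the count of indexed references.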

Compound	Hepatotoxicity (steatosis) [1]	Hepatotoxicity (cirrhosis) [2]	Hepatotoxicity (acute) [3]	Hepatotoxicity (malignant tumour) [5]	Hepatotoxicity (benign tumour) [6]	Hepatotoxicity (animal toxicity known) [7]	Hepatotoxicity (time to onset) [8]	Hepatotoxicity (association with vascular disease) [9]	Hepatotoxicity (moderate) [11]	Hepatotoxicity (successful reintroduction) [12]	Hepatotoxicity (comment) [15]	Hepatotoxicity (chronic liver disease) [17]	Hepatotoxicity (choleostasis) [4]	Hepatotoxicity (mechanism) [10]	Hepatotoxicity (severe hepatitis) [13]	Hepatotoxicity (acute) [14] [%]	Hepatotoxicity (cytolytic) [16]	Hepatotoxicity (granulomatous hepatitis) [18]	Hepatotoxicity (moderate) [19] [%]	other results
CN/C(=N/CCSCc1nc[nH]c1C)NC#N [CIMETIDINE]	0	0	28	0	0	yes	2 days - 2 years	0	29	yes	RC/FAMOTIDINE I/MEBENDAZOLE	1	–	–	–	–	–	–	–	Hepatotoxicity (choleostasis) ([4]; Liver): 10; Hepatotoxicity (mechanism) ([10]; Liver): Allergic, Dose-dependant, Toxic Metabolite; Hepatotoxicity (severe hepatitis) ([13]; Liver): 3; Hepatotoxicity (acute) ([14]; Liver): 0%; Hepatotoxicity (cytolytic) ([16]; Liver): 20; Hepatotoxicity (granulomatous hepatitis) ([18]; Liver): 0; Hepatotoxicity (moderate) ([19]; Liver): 38%
CCC(=O)O[C@](Cc1ccccc1)(c1ccccc1)[C@H](C)CN(C)C [PROPOXYPHENE]	0	0	21	0	0	yes	1 day - 1.5 years	0	6	yes	CHOLANGITE	1	20	Allergic, Dose-dependant	0	0	7	0	14.3	–
CN(C)CCCN1c2ccccc2Sc2ccc(Cl)cc21 [CHLORPROMAZINE]	1	8	58	0	0	yes	1 day - 28 years	0	9	yes	RC/PROMAZINE/THIORIDAZINE AC_ANTI-N #CBP DUCTOPENIE	6	50	Allergic, Toxic Metabolite	–	–	13	2	–	Hepatotoxicity (severe hepatitis) ([13]; Liver): 4; Hepatotoxicity (acute) ([14]; Liver): 5.3%; Hepatotoxicity (moderate) ([19]; Liver): 42%
CN(C)c1ccc(O)c2c1C[C@H]1C[C@H]3[C@H](N(C)C)C(O)=C(C(N)=O)C(=O)[C@@]3(O)C(O)=C1C2=O [MINOCYCLINE]	2	0	48	0	0	yes	4 days - 12 years	0	17	yes	AC_ANTI-N/-ADN/-pNCA REACTIVATION_VH-6	11	2	Allergic, Dose-dependant, Toxic Metabolite	8	0	36	1	41.7	–
CN(Cc1cnc2nc(N)nc(N)c2n1)c1ccc(C(=O)N[C@@H](CCC(=O)O)C(=O)O)cc1 [METHOTREXATE]	16	42	26	8	0	yes	4 hours - 16 years	5	173	yes	I/ETRETINATE REACTIVATION_HVB SHNA MVO	45	2	Dose-dependant	5	35	21	8	88	–
CC(C)NNC(=O)c1ccncc1 [IPRONIAZID]	0	3	30	0	0	yes	3 days - 1 year	0	2	yes	AC_ANTI-M6 RC/PHENIPRAZINE	3	3	Allergic, Reactive metabolite	18	1.4	28	0	30	–
ALDESLEUKIN	1	1	14	0	0	yes	1 day - 2 years	0	58	yes	CHOLECYSTITE PERICHOLANGITE	0	6	Allergic, Dose-dependant	1	35.7	6	0	100	–
COC(F)(F)C(Cl)Cl [METHOXYFLURANE]	3	0	32	0	0	yes	1 day - 20 days	0	8	yes	RC/HALOTHANE	0	0	Allergic, Reactive metabolite	19	0	27	0	0	–
CC(=O)N1CCN(c2ccc(OCC3COC(Cn4ccnc4)(c4ccc(Cl)cc4Cl)O3)cc2)CC1 (centres undefined) [KETOCONAZOLE]	2	0	45	0	0	yes	3 days - 5 years	0	62	yes	CHOLESTASE_PROLONGEE	3	19	Toxic, Dose-dependant	14	2.9	37	1	50	–
CC(C)Nc1ncccn1 [ISAXONINE]	1	0	13	0	0	yes	1 month - 6 months	0	0	yes	AC_ANTI-MFR1	0	3	Allergic, Reactive metabolite	4	0	13	1	0	–
NNC(=O)c1ccncc1 [ISONIAZID]	1	4	91	0	0	yes	1 day - 1 year	0	60	yes	I/CARBAMAZE/ENFLURANE/PARACETAMOL/RIFAMPICINE/RIFAMYCINE/VALPROATE	3	11	Dose-dependant, Reactive metabolite	40	26.7	61	1	51.2	–
